# Laboratory results published in US11866720B2, “Transgenic or non-transgenic plants with mutated protoporphyrinogen oxidase having increased tolerance to herbicides” (priority 2013, dated 2024).
# Where two headings read alike, the source gives them in different places.
# Test system: transgenic soybean expressing mutated PPO
# Assay type: in vivo, Glycine max
# Details: T1 soybean, field; for injury (1-5 point scale): benzoxazin (BAS 850H) 100 g ai/ha, 3 days after treatment
# For injury (1-5 point scale) in this document: key: 1: no obvious damage (no phytotoxicity); 2: minor amount of leaf damage, plant will survive; 3: moderate amount of leaf damage, plant will survive; 4: severe amount of leaf damage, plant will survive; 5: no surviving plants - all plants dead/dying.
smiles,measurement,setting,value
C#CCN1C(=O)C(F)(F)Oc2cc(F)c(-n3c(=O)n(C)c(=S)n(C)c3=O)cc21,Injury rating (1-5 point scale),"AmtuPPX2L_R128A_F420V (event 10), BAS 850H: treatment 1 100 g ai/ha, treatment 2 0, 7DAT",3.5
same,Injury rating (1-5 point scale),"AmtuPPX2L_R128A_F420V (event 10), BAS 850H: treatment 1 300 g ai/ha, treatment 2 300 g ai/ha, 14 DAT",3
same,injury (1-5 point scale),SDS-10648 AmtuPPX2L R128A_F420I,3
same,injury (1-5 point scale),SDS-10791 AmtuPPX2L R128A_F420I,2
same,injury (1-5 point scale),SDS-11014 AmtuPPX2L R128A_F420I,2
same,injury (1-5 point scale),SDS-11034 AmtuPPX2L L397D_F420V,3
same,injury (1-5 point scale),SDS-11035 AmtuPPX2L R128A_F420V,2
same,injury (1-5 point scale),SDS-11052 AmtuPPX2L R128A_F420M,3
same,Injury rating (1-5 point scale),"wild type, BAS 850H: treatment 1 100 g ai/ha, treatment 2 0, 7DAT",5
same,Injury rating (1-5 point scale),"wild type, BAS 850H: treatment 1 300 g ai/ha, treatment 2 300 g ai/ha, 14 DAT",5
same,injury (1-5 point scale),wild type,5
